Reference: article PMC9227536, “Prediction of Pharmacokinetics of IDP-73152 in Humans Using Physiologically-Based Pharmacokinetics” (Pharmaceutics, 2022)

Tests used:
[1] = Metabolic stability in rat hepatocytes; type: in vitro ADME
Protocol: For the hepatocyte incubation study, rat hepatocytes were freshly prepared using the two-step collagenase perfusion method with slight modifications. After the isolation, cell viability during the preparation process was first determined by a trypan blue exclusion assay prior to the stability study. The preparation was considered adequate for subsequent studies if the viability was greater than 80%. When appropriate, the hepatocytes were resuspended in Williams' media E containing 10% fetal bovine serum, 1% penicillin-streptomycin, and 0.01% insulin-transferrin-selenium (i.e., 10 mg/mL insulin, 5.5 mg/mL transferrin, and 5 mg/mL selenium) at pH 7.4. […] Assuming first-order disappearance kinetics, the slope k of the logarithmically transformed IDP-73152 concentration in the sample versus time plot was determined by the linear regression analysis of the data. The total intrinsic clearance (CLint,mic, μL/min/mg protein for microsomal incubation study and CLint,hep, μL/min/million cells for hepatocytes incubation study) was then calculated using the following equations:(4) CLint, mic=k×Volume of incubation medium (μL)/Protein in incubation medium (mg) (5) CLint,hep=k×Volume of incubation (μL)/Number of cells in incubation (×10^6) The unbound intrinsic clearance, with respect to the whole liver ([…]), was then estimated for the two cases. […]

[2] = Blood partitioning (LC-MS/MS-based depletion method), rat; type: in vitro ADME; settings: whole blood, rats blood, 0.3, 1, 3 μM, read-out: BP (blood-to-plasma concentration ratio)
Protocol: (§1) In this study, the partitioning of IDP-73152 in blood samples obtained from mice, rats, dogs, and humans was determined using the LC-MS/MS-based depletion method with slight modifications. DP-73152 was added to an aliquot (1 mL) of blank blood or plasma at a final concentration of 0.3, 1, or 3 μM. The mixture was incubated at 37 °C in a water bath for 60 min. After the incubation, the plasma was separated by centrifugation of the blood samples for 5 min at 10,000× g/4 °C and stored at -80 °C until analysis. The blood-to-plasma concentration ratio (BP) was calculated using the equation:(3) BP=[…], where […] is the concentration of the compound at the corresponding blood concentration in the plasma, and CPL is the concentration from the plasma sample separated from the incubated blood.

[3] = Stability in plasma, rat; type: in vitro ADME, rats
Protocol: The unbound fractions of IDP-73152 in various matrices were measured according to the manufacturer's instructions for the rapid equilibrium dialysis (RED) device (ThermoFisher Scientific, Waltham, MA, USA). Briefly, IDP-73152 was added to the plasma or the microsomal/hepatocyte incubation buffer from various species (i.e., mouse, rat, dog, and human for microsomal incubation; rat for hepatocyte incubation) to obtain final concentrations of the compound at 0.3, 1, and 3 μM. After the membrane insert was placed in the RED plate, the solution containing IDP-73152 was added (400 μL) to the sample chamber, and the dialysis buffer (600 μL) was added to the buffer chamber. The RED plate was sealed with parafilm and then incubated at 37 °C in the orbital shaker (Lab Companion, Daejeon, Korea) at 100 rpm for 5 h. […] The IDP-73152 concentration in the buffer/sample chambers (i.e., CBuffer Chamber and CSample Chamber) was determined by an assay. Thus, the fraction unbound was defined as:(2) % Fraction unbound=(CBuffer Chamber/CSample Chamber)×100% When necessary, the stability of IDP-73152 in the matrix was also determined at 5 h. […] Accordingly, the kinetics of IDP-73152 instability were determined in the rat blood at a final concentration of 0.3 μM. […]

[4] = Unbound fraction in plasma (rapid equilibrium dialysis), dog; type: in vitro ADME; settings: dogs plasma, 0.3, 1, 3 μM, RED 5 h, read-out: fu,p
Protocol: The unbound fractions of IDP-73152 in various matrices were measured according to the manufacturer’s instructions for the rapid equilibrium dialysis (RED) device (ThermoFisher Scientific, Waltham, MA, USA). Briefly, IDP-73152 was added to the plasma or the microsomal/hepatocyte incubation buffer from various species (i.e., mouse, rat, dog, and human for microsomal incubation; rat for hepatocyte incubation) to obtain final concentrations of the compound at 0.3, 1, and 3 μM. After the membrane insert was placed in the RED plate, the solution containing IDP-73152 was added (400 µL) to the sample chamber, and the dialysis buffer (600 μL) was added to the buffer chamber. The RED plate was sealed with parafilm and then incubated at 37 °C in the orbital shaker (Lab Companion, Daejeon, Korea) at 100 rpm for 5 h. After a 50 μL aliquot was aspirated from both the sample and buffer chambers, an equal volume of protein-free buffer or blank medium was replaced in the aspirated sample or buffer to render the matrices compositionally identical. The IDP-73152 concentration in the buffer/sample chambers (i.e., CBuffer Chamber and CSample Chamber) was determined by an assay. Thus, the fraction unbound was defined as:(2) % Fraction unbound=(CBuffer Chamber/CSample Chamber)×100%

[5] = Blood partitioning (LC-MS/MS-based depletion method), human; type: in vitro ADME; settings: whole blood, humans blood, 0.3, 1, 3 μM, read-out: BP (blood-to-plasma concentration ratio)
Protocol: as §1

Q: What does the source list for `CC(C)(C)[C@H](NC(=O)[C@H](CC1CCCC1)CN(O)C=O)C(=O)N1CCC(NCc2cc(F)c(F)cc2F)CC1` [IDP-73152]?
A: hepatocyte CLint at 1 μM ([1]; freshly isolated hepatocytes in suspension, pH 7.4, rat hepatocytes 0.5 × 10^6 cells/mL, 1 μM, read-out: CL,int,hep): 27.7 ± 3.2 µL/min/1e6 cells; CLu,int,H ([1]; rats, scaled from rat hepatocytes): 6.82 ± 0.79 L/h; blood plasma ratio at 60 min [2]: 1.56 ± 0.37; stability in blood and plasma ([3]; rat blood and plasma, preliminary study): unstable; percentage remaining in plasma at 5 h ([3]; rats plasma, 5 h, 37 °C): 65.3 ± 13.7%; fraction unbound at 5 h [4]: 0.0547 ± 0.0053; blood plasma ratio at 60 min [5]: 1.24 ± 0.08
